Source: patent US20180000085A1, “USE OF PICOLINAMIDE COMPOUNDS WITH FUNGICIDAL ACTIVITY” (DOW AGROSCIENCES LLC, priority 2014, published 2018)

Key:
Puccinia triticina = assay: Wheat brown rust (PUCCRT) disease control on wheat seedlings; assay type: in vivo; parameters: key to PUCCRT 3DC, HV activity at 100 ppm (% control rating) / PUCCRT disease control, 3DC / PUCCRT 1DP disease control rating, HV activity / PUCCRT 3DC disease control rating, HV activity / PUCCRT 3DC, LV activity at 125.1 g/H (% Control rating) / PUCCRT 1DP, LV activity at 125.1 g/H (% Control rating) / PUCCRT 3DC disease control rating, LV activity at 125.1 g/H / PUCCRT 1DP disease control rating, LV activity at 125.1 g/H / PUCCRT 3DC disease control rating, HV activity at 100 ppm / PUCCRT 1DP disease control rating, HV activity at 100 ppm / HV activity at 100 ppm PUCCRT 3DC (disease control rating) / LV activity at 125.1 g/H PUCCRT 1DP (disease control rating) / LV activity at 125.1 g/H PUCCRT 3DC (disease control rating): A: > 80; B: ≤ 80; C: Not Tested; D: No Activity Observed in the Reported Assay; details: low volume application, 125.1 g/H; for PUCCRT 1DP, LV activity at 125.1 g/H (% Control rating): 1 Day Protectant; for PUCCRT 3DC, LV activity at 125.1 g/H (% Control rating): 3 Day Curative; for PUCCRT 1DP disease control rating, LV activity at 125.1 g/H: 1 day protectant; for PUCCRT 3DC disease control rating, LV activity at 125.1 g/H: 3 day curative
Zymoseptoria tritici = assay: Leaf blotch of wheat (SEPTTR) disease control on wheat seedlings; assay type: in vivo; parameters: key to SEPTTR 1DP, HV activity at 100 ppm (% control rating) / SEPTTR 3DC, HV activity at 100 ppm (% control rating) / SEPTTR disease control, 1DP / SEPTTR disease control, 3DC / SEPTTR 1DP disease control rating, HV activity / SEPTTR 3DC disease control rating, HV activity / SEPTTR 3DC, LV activity at 125.1 g/H (% Control rating) / SEPTTR 1DP, LV activity at 125.1 g/H (% Control rating) / SEPTTR 1DP disease control rating, LV activity at 125.1 g/H / SEPTTR 3DC disease control rating, LV activity at 125.1 g/H / SEPTTR 3DC disease control rating, HV activity at 100 ppm / SEPTTR 1DP disease control rating, HV activity at 100 ppm / HV activity at 100 ppm SEPTTR 3DC (disease control rating) / HV activity at 100 ppm SEPTTR 1DP (disease control rating) / LV activity at 125.1 g/H SEPTTR 1DP (disease control rating) / LV activity at 125.1 g/H SEPTTR 3DC (disease control rating): A: > 80; B: ≤ 80; C: Not Tested; D: No Activity Observed in the Reported Assay; details: low volume application, 125.1 g/H; for SEPTTR 1DP, LV activity at 125.1 g/H (% Control rating): 1 Day Protectant; for SEPTTR 3DC, LV activity at 125.1 g/H (% Control rating): 3 Day Curative; for SEPTTR 1DP disease control rating, LV activity at 125.1 g/H: 1 day protectant; for SEPTTR 3DC disease control rating, LV activity at 125.1 g/H: 3 day curative

SMILES | PUCCRT 1DP, LV activity at 125.1 g/H (% Control rating) (Puccinia triticina) | PUCCRT 3DC, LV activity at 125.1 g/H (% Control rating) (Puccinia triticina) | SEPTTR 1DP, LV activity at 125.1 g/H (% Control rating) (Zymoseptoria tritici) | SEPTTR 3DC, LV activity at 125.1 g/H (% Control rating) (Zymoseptoria tritici) | PUCCRT 1DP disease control rating, LV activity at 125.1 g/H (Puccinia triticina) | PUCCRT 3DC disease control rating, LV activity at 125.1 g/H (Puccinia triticina) | SEPTTR 1DP disease control rating, LV activity at 125.1 g/H (Zymoseptoria tritici) | SEPTTR 3DC disease control rating, LV activity at 125.1 g/H (Zymoseptoria tritici)
CCC(CC)[C@@H](Oc1cc(F)ccc1F)[C@H](C)OC(=O)[C@@H](NC(=O)c1nccc(OC)c1OCOC(C)=O)C(C)C [Cmpd 650] | A (> 80) | B (≤ 80) | D | B (≤ 80) |  |  |  | 
CCC(CC)[C@@H](Oc1cc(F)cc(Cl)c1)[C@H](C)OC(=O)[C@@H](NC(=O)c1nccc(OC)c1OCOC(C)=O)C(C)C [Cmpd 651] | A (> 80) | B (≤ 80) | A (> 80) | A (> 80) |  |  |  | 
CCC(CC)[C@@H](Oc1ccccc1Cl)[C@H](C)OC(=O)[C@@H](NC(=O)c1nccc(OC)c1OCOC(C)=O)C(C)C [Cmpd 652] | A (> 80) | B (≤ 80) | B (≤ 80) | B (≤ 80) |  |  |  | 
CCC(CC)[C@@H](Oc1ccc(C(F)(F)F)cc1)[C@H](C)OC(=O)[C@@H](NC(=O)c1nccc(OC)c1OCOC(C)=O)C(C)C [Cmpd 653] | A (> 80) | B (≤ 80) | D | B (≤ 80) |  |  |  | 
CCC(CC)[C@@H](Oc1cccc(-c2ccccc2)c1)[C@H](C)OC(=O)[C@@H](NC(=O)c1nccc(OC)c1OCOC(C)=O)C(C)C [Cmpd 654] | A (> 80) | D | B (≤ 80) | D |  |  |  | 
CCC(CC)[C@@H](Oc1ccc(-c2ccccc2)cc1)[C@H](C)OC(=O)[C@@H](NC(=O)c1nccc(OC)c1OCOC(C)=O)C(C)C [Cmpd 655] | A (> 80) | B (≤ 80) | A (> 80) | B (≤ 80) |  |  |  | 
CCC(CC)[C@@H](Oc1ccc(F)cc1)[C@H](C)OC(=O)[C@@H](NC(=O)c1nccc(OC)c1OC(C)=O)C(C)C [Cmpd 657] | A (> 80) | B (≤ 80) | A (> 80) | B (≤ 80) |  |  |  | 
CCC(CC)[C@@H](Oc1cccc(Cl)c1)[C@H](C)OC(=O)[C@@H](NC(=O)c1nccc(OC)c1OC(C)=O)C(C)C [Cmpd 658] |  |  |  |  | A (> 80) | B (≤ 80) | D | B (≤ 80)
CCC(CC)[C@@H](Oc1ccccc1Cl)[C@H](C)OC(=O)[C@@H](NC(=O)c1nccc(OC)c1OC(C)=O)C(C)C [Cmpd 662] |  |  |  |  | A (> 80) | B (≤ 80) | D | B (≤ 80)
CCC(CC)[C@@H](Oc1cccc(-c2ccccc2)c1)[C@H](C)OC(=O)[C@@H](NC(=O)c1nccc(OC)c1OC(C)=O)C(C)C [Cmpd 664] |  |  |  |  | A (> 80) | D | D | D
CCC(CC)[C@H](Oc1cc(F)ccc1F)[C@H](C)OC(=O)[C@H](C)NC(=O)c1nccc(OC)c1OCOC(C)=O [Cmpd 671] |  |  |  |  | A (> 80) | A (> 80) | D | B (≤ 80)
CCC(CC)[C@H](Oc1cc(F)cc(Cl)c1)[C@H](C)OC(=O)[C@H](C)NC(=O)c1nccc(OC)c1OCOC(C)=O [Cmpd 672] |  |  |  |  | A (> 80) | B (≤ 80) | A (> 80) | B (≤ 80)
